# How the values were obtained:
# Type in all cases: cell-based
# Escherichia coli = experiment: Minimum inhibitory concentration according to DIN 58940, Escherichia coli; conditions: Escherichia coli, single antimicrobial agents, read-out: MIC values E. coli
# Text: (§1) In order to calculate the Synergy Index SI with MIC values, the Kull equation is used as follows:
# (§2) SI=(MICmixture×PA)/MICA+(MICmixture×PB)/MICB (II)
# (§3) where SI is the Synergy Index according to Kull^1), 2) MICA is the MIC value for substance A MICB is the MIC value for substance B MICmixture is the MIC value for the mixture of substances A and B PA is the proportion of the substance A in the mixture PB is the proportion of the substance B in the mixture. b) Mixtures containing 3 components
# (§4) SI=(MICmixture×PA)/MICA+(MICmixture×PB)/MICB+(MICmixture×PC)/MICC
# (§5) where SI is the Synergy Index according to Kull^1), 2) MICA is the MIC value for substance A MICB is the MIC value for substance B MICC is the MIC value for substance C MICmixture is the MIC value for the mixture of substances […] PA is the proportion of the substance A in the mixture PB is the proportion of the substance B in the mixture. PC is the proportion of the substance C in the mixture.
# Candida albicans = experiment: Minimum inhibitory concentration according to DIN 58940, Candida albicans; conditions: Candida albicans, single antimicrobial agents
# Text: as §1, §2, §3, §4, §5
# Staphylococcus aureus = experiment: Minimum inhibitory concentration according to DIN 58940, Staphylococcus aureus; conditions: Staphylococcus aureus, single antimicrobial agents
# Text: as §1, §2, §3, §4, §5
# S. aureus = experiment: Challenge test of preserved emulsion, S. aureus
# Method: (§6) 1% b.w. of heptylglycerin, benzylglycerin and phenylpropylglycerin, respectively was added to an aqueous emulsion of Glyceryl stearyl citrate (Dracorin CE). The formulations were tested in standard challenge tests against various micro-organisms. The results are shown in Table 1 and indicate the high activity of the actives against yeast and bacteria, but not against mould.
# Aspergillus brasiliensis = experiment: Minimum inhibitory concentration according to DIN 58940, Aspergillus brasiliensis; conditions: Aspergillus brasiliensis, single antimicrobial agents
# Text: as §1, §2, §3, §4, §5
# Pseudomonas aeruginosa = experiment: Minimum inhibitory concentration according to DIN 58940, Pseudomonas aeruginosa; conditions: Pseudomonas aeruginosa, single antimicrobial agents
# Text: as §1, §2, §3, §4, §5
# C. albicans = experiment: Challenge test of preserved emulsion, C. albicans
# Method: as §6
# A. brasiliensis = experiment: Challenge test / synergy (Kull equation), A. brasiliensis
# Method: 1% b.w. of heptylglycerin, benzylglycerin and phenylpropylglycerin, respectively was added to an aqueous emulsion of Glyceryl stearyl citrate (Dracorin CE). The formulations were tested in standard challenge tests against various micro-organisms.
# To calculate the synergism between compounds of formula (I) and other antimicrobial actives, the Kull equation^1 2 was used
# SI=(Cmixture×PA)/CA+(Cmixture×PB)/CB (I)
# where SI is the Synergy Index according to Kull^1), 2) CA is the cell count for substance A CB is the cell count for substance B Cmixture is the cell count for the mixture of substances A and B PA is the proportion of the substance A in the mixture PB is the proportion of the substance B in the mixture. ^1 Kull, F. C., Eismann, P. C., Sylvestrowicz, H. D., and R. L. Mayer (1961). Mixtures of Quaternary Ammonium Compounds and Long-chain Fatty Acids as Antifungal Agents. Applied Microbiology 9, 538-541.^2 Steinberg, D.C. (2000). Measuring Synergy. Cosmetics & Toiletries 115 (11), 59-62.
# Colony counts of <100 were arbitrarily set to 100, in order to allow for synergy calculations with the above equation. The abbreviation “n.a.” means not applicable.
# E. coli = experiment: Challenge test of preserved emulsion, E. coli
# Method: as §6
# P. aeruginosa = experiment: Challenge test of preserved emulsion, P. aeruginosa
# Method: as §6
# [1] = Day 0, 1% b.w. active in aqueous emulsion of Glyceryl stearyl citrate (Dracorin CE)
# [2] = Day 2, 1% b.w. active in aqueous emulsion of Glyceryl stearyl citrate (Dracorin CE)
# [3] = Day 7, 1% b.w. active in aqueous emulsion of Glyceryl stearyl citrate (Dracorin CE)
# [4] = Day 14, 1% b.w. active in aqueous emulsion of Glyceryl stearyl citrate (Dracorin CE)
# [5] = Day 28, 1% b.w. active in aqueous emulsion of Glyceryl stearyl citrate (Dracorin CE)
structure (smiles),measurement,setting,value
CCCCCCCOCC(O)CO (centres unmarked) [Heptylglycerin],MIC,Escherichia coli,2000 µg/mL
same,MIC,Candida albicans,2000 µg/mL
same,MIC,Staphylococcus aureus,2500 µg/mL
same,colony counts Day 0,S. aureus; [1],230.000 cfu/g formulation
same,colony counts Day 2,S. aureus; [2],0 cfu/g formulation
same,colony counts Day 7,S. aureus; [3],0 cfu/g formulation
same,colony counts Day 14,S. aureus; [4],0 cfu/g formulation
same,colony counts Day 28,S. aureus; [5],0 cfu/g formulation
same,MIC,Aspergillus brasiliensis,1000 µg/mL
same,MIC,Pseudomonas aeruginosa,5000 µg/mL
same,colony counts Day 2,C. albicans; [2],<100 cfu/g formulation
same,colony counts Day 7,C. albicans; [3],0 cfu/g formulation
same,colony counts Day 14,C. albicans; [4],0 cfu/g formulation
same,colony counts Day 28,C. albicans; [5],0 cfu/g formulation
same,colony counts Day 0,A. brasiliensis; [1],220.000 cfu/g formulation
same,colony counts Day 2,A. brasiliensis; [2],320.000 cfu/g formulation
same,colony counts Day 14,A. brasiliensis; [4],300.000 cfu/g formulation
same,colony counts Day 28,A. brasiliensis; [5],170.000 cfu/g formulation
same,Colony counts day 0,"A. brasiliensis; Table 3, day 0, 1.0% total active",220.000 cfu/g formulation
same,Relative colony counts day 0,"A. brasiliensis; Table 3, day 0, relative to day 0, 1.0% total active",1.0000
same,Colony counts day 2,"A. brasiliensis; Table 3, day 2, 1.0% total active",320.000 cfu/g formulation
same,Relative colony counts day 2,"A. brasiliensis; Table 3, day 2, relative to day 0, 1.0% total active",1.4545
same,Colony counts day 7,"A. brasiliensis; Table 3, day 7, 1.0% total active",340.000 cfu/g formulation
same,Relative colony counts day 7,"A. brasiliensis; Table 3, day 7, relative to day 0, 1.0% total active",1.5455
same,Colony counts day 14,"A. brasiliensis; Table 3, day 14, 1.0% total active",300.000 cfu/g formulation
same,Relative colony counts day 14,"A. brasiliensis; Table 3, day 14, relative to day 0, 1.0% total active",1.3636
same,Colony counts day 28,"A. brasiliensis; Table 3, day 28, 1.0% total active",170.000 cfu/g formulation
same,Relative colony counts day 28,"A. brasiliensis; Table 3, day 28, relative to day 0, <100 set to 100, 1.0% total active",0.7727
same,colony counts Day 0,E. coli; [1],210.000 cfu/g formulation
same,colony counts Day 2,E. coli; [2],0 cfu/g formulation
same,colony counts Day 7,E. coli; [3],0 cfu/g formulation
same,colony counts Day 14,E. coli; [4],0 cfu/g formulation
same,colony counts Day 28,E. coli; [5],0 cfu/g formulation
same,colony counts Day 0,P. aeruginosa; [1],250.000 cfu/g formulation
same,colony counts Day 2,P. aeruginosa; [2],0 cfu/g formulation
same,colony counts Day 7,P. aeruginosa; [3],0 cfu/g formulation
same,colony counts Day 14,P. aeruginosa; [4],0 cfu/g formulation
same,colony counts Day 28,P. aeruginosa; [5],0 cfu/g formulation
